In patent publication US12497370B2, “Isoxazoline derivatives” (Elanco Tiergesundheit AG, priority 2019, dated 2025):

Tested on: fleas (Ctenocephalides felis)
Experiment: In vitro evaluation of ingestion activity against fleas
Settings: flea ingestion test, compound in organic bovine blood (0.5% DMSO), adult fleas, percent mortality between 2 h and 48 h post infestation, read-out: EC50 (the source's name)
Procedure: In Vitro Evaluation of Ingestion Activity Against Fleas (Ctenocephalides felis)
For flea ingestion tests, serial dilutions of the compound stock were performed using DMSO to achieve the desired range for EC50 and EC90 determination. An aliquot of each compound dilution was added to organic bovine blood with a final DMSO concentration of 0.5% and placed in an artificial feeding container. Fipronil is included to serve as a positive control. Ten newly emerged unfed adult fleas, 0-7 days old Ctenocephalides felis, from a laboratory colony, were aspirated into each vial or cage. The cages for flea ingestion assays were held in a temperature-controlled artificial feeding apparatus to allow continual access to organic bovine blood containing the desired concentration of compound. Fresh aliquots of compound-spiked bovine blood were provided daily for the duration of the study. Fleas were evaluated for percent mortality at various time points between 2 h and 48 h post infestation. Fleas showing normal movement and/or jumping ability were considered viable and those showing no movement after tapping the vials were scored as dead.

Row | Compound | LC50 [µg/mL]
1 | Cc1cc(C2=NOC(c3cc(C(F)(F)F)cc(Cl)c3F)(C(F)(F)F)C2)ccc1C(=O)N[C@@H]1CCN(CC(F)(F)F)C1 (single isomer, unassigned) [Example 3.80, 4-[(5S or R)-5-[3-chloro-2-fluoro-5-(trifluoromethyl)phenyl]-5-(trifluoromethyl)-4H-isoxazol-3-yl]-2-methyl-N-[(3R)-1-(2,2,2-trifluoroethyl)pyrrolidin-3-yl]benzamide] | < 1
2 | Cc1cc(C2=NOC(c3cc(C(F)(F)F)cc(Cl)c3F)(C(F)(F)F)C2)ccc1C(=O)Nc1cccc(C#N)c1 (single isomer, unassigned) [Example 3.81, N-(3-cyanophenyl)-2-methyl-4-[(5S or R)-5-[3-chloro-2-fluoro-5-(trifluoromethyl)phenyl]-5-(trifluoromethyl)-4H-isoxazol-3-yl]benzamide] | < 3
3 | Cc1cc(C2=NOC(c3cc(C(F)(F)F)cc(Cl)c3F)(C(F)(F)F)C2)ccc1C(=O)NCC1(S(C)(=O)=O)CC1 (single isomer, unassigned) [Example 3.83, 2-methyl-N-[(1-methylsulfonylcyclopropyl)methyl]-4-[(5R or S)-5-[3-chloro-2-fluoro-5-(trifluoromethyl)phenyl]-5-(trifluoromethyl)-4H-isoxazol-3-yl]benzamide] | < 1
4 | Cc1cc(C2=NOC(c3cc(C(F)(F)F)cc(Cl)c3F)(C(F)(F)F)C2)ccc1C(=O)N[C@@H]1CNC(=O)C1 (single isomer, unassigned) [Example 3.84, 4-[(5R or S)-5-[3-chloro-2-fluoro-5-(trifluoromethyl)phenyl]-5-(trifluoromethyl)-4H-isoxazol-3-yl]-2-methyl-N-[(3S)-5-oxopyrrolidin-3-yl]benzamide] | < 1
5 | Cc1cc(C2=NOC(c3cc(C(F)(F)F)cc(Cl)c3F)(C(F)(F)F)C2)ccc1C(=O)N[C@H]1CNC(=O)C1 (single isomer, unassigned) [Example 3.85, 4-[(5R or S)-5-[3-chloro-2-fluoro-5-(trifluoromethyl)phenyl]-5-(trifluoromethyl)-4H-isoxazol-3-yl]-2-methyl-N-[(3R)-5-oxopyrrolidin-3-yl]benzamide] | < 1
6 | CCN1C[C@@H](NC(=O)c2ccc(C3=NOC(c4cc(C(F)(F)F)cc(Cl)c4F)(C(F)(F)F)C3)cc2C)CC1=O (single isomer, unassigned) [Example 3.86, 4-[(5R or S)-5-[3-chloro-2-fluoro-5-(trifluoromethyl)phenyl]-5-(trifluoromethyl)-4H-isoxazol-3-yl]-N-[(3S)-1-ethyl-5-oxo-pyrrolidin-3-yl]-2-methyl-benzamide] | < 1
7 | CCN1C[C@H](NC(=O)c2ccc(C3=NOC(c4cc(C(F)(F)F)cc(Cl)c4F)(C(F)(F)F)C3)cc2C)CC1=O (single isomer, unassigned) [Example 3.87, 4-[(5R or S)-5-[3-chloro-2-fluoro-5-(trifluoromethyl)phenyl]-5-(trifluoromethyl)-4H-isoxazol-3-yl]-N-[(3R)-1-ethyl-5-oxo-pyrrolidin-3-yl]-2-methyl-benzamide] | < 1
8 | Cc1cc(C2=NO[C@@](c3cc(C(F)(F)F)cc(Cl)c3F)(C(F)(F)F)C2)ccc1C(=O)N[C@@H]1CC[C@H](C#N)C1 (single isomer, unassigned) [Example 3.90, 4-[(5S or R)-5-[3-chloro-2-fluoro-5-(trifluoromethyl)phenyl]-5-(trifluoromethyl)-4H-isoxazol-3-yl]-N-[cis-3-cyanocyclopentyl]-2-methyl-benzamide] | < 1
9 | Cc1cc(C2=NOC(c3cc(C(F)(F)F)cc(Cl)c3F)(C(F)(F)F)C2)ccc1C(=O)N[C@H]1CC[C@@H](C#N)CC1 (single isomer, unassigned) [Example 3.91, N-(cis-4-cyanocyclohexyl)-2-methyl-4-[(5R or S)-5-[3-chloro-2-fluoro-5-(trifluoromethyl)phenyl]-5-(trifluoromethyl)-4H-isoxazol-3-yl]benzamide] | < 1
